# Laboratory results as given in EP0629400B1 (TAKEDA CHEMICAL INDUSTRIES, LTD., priority 1993, dated 1994).
# Legend:
# mouse astroglias = conditions: cited from earlier work
# [1] = test system: Patients with Alzheimer type dementia; experiment: Double-blind controlled study, efficacy by Alzheimer's Disease Assessment Scale (ADAS); assay type: in vivo; conditions: for Score Difference after 6 Months of Administration (mean ± SD): ADAS, n=100, severity increases as the value increases
# Experimental: A double-blind controlled study was conducted in patients with Alzheimer type dementia.
# There was no bias in background factors or pre-administration values for efficacy evaluation index among the three groups. Efficacy was evaluated by the Alzheimer's Disease Assessment Scale (ADAS) [American Journal of Psychiatry, Vol. 141, pp. 1356-1364, (1984)], an index for rating the therapeutic effect on Alzheimer's disease recommended by the FDA and all over the world. The results were statistically analyzed to rate the efficacy.
# The drugs administered to the patients in the experiment were the tablet preparations of Example 1 and Comparative Examples 1 and 2 above.
# [2] = test system: patients with Alzheimer's disease; conditions: 45 mg twice a day (daily dose 90 mg); cited from earlier work
structure (smiles),measurement,setting,value
"COC1=C(OC)C(=O)C(CCCCCCCCCCO)=C(C)C1=O [idebenone, 6-(10-hydroxydecyl)-2,3-dimethoxy-5-methyl-1,4-benzoquinone]",nerve growth factor (NGF) secretion,mouse astroglias,induction and promotion of nerve growth factor (NGF) secretion
same,symptoms of Alzheimer's disease,"[1]; 90 mg 3 times a day, compared with 30 mg 3 times a day and placebo",improvement of statistical significance
same,Score Difference after 6 Months of Administration (mean ± SD),[1]; 30 mg TID oral after meals (tablets of Comparative Example 1),-5.5 ± 7.2
same,Score Difference after 6 Months of Administration (mean ± SD),[1]; 90 mg TID oral after meals (tablets of Example 1),-8.0 ± 8.5
same,efficacy in patients with Alzheimer's disease,[2],proved effective
